Measured values reported in patent US7129218B2, “Use of rhamnolipids in wound healing, treatment and prevention of gum disease and periodontal regeneration” (Paradigm Biomedical, Inc., priority 1999, dated 2006).

Columns and labels:
incision wounds = test: Tensile strength of incision wounds (rats); type: in vivo, Sprague-Dawley rats; settings: 0.1% BAC-3; 21 days after wounding; p<0.05 by ANOVA; FIG. 3
Protocol: The wounding of animals was performed according to the Protocol for Animal Use and Care at the University of California-Davis (hereafter UC-Davis). The entire animal protocol required 70 Sprague-Dawley rats: 30 rats for incision wounds and 40 rats for burn wounds. Among them 36 rats were burned over 7% of their skin and 4 rats were burned over 15% of their skin. Incision wounds of whole skin and burn wounds were treated topically with 2 test doses of the pharmaceutical preparation of di-rhamnolipid BAC-3. Each dose contained a). 1%, and 0.1% of active di-rhamnolipid (BAC-3) in eucerin (eucerin=71.5 g Vaselinum album (Producer: D.E.A. Hamburg); 23.8 g Lanolinum (Producer I.O.I. Hamburg); 4.7 g Cholesterin (Producer: Solvay, Wiena, Austria); Water Number: 320); or b). 1%; 0.1% active rhamnolipid (BAC-3) with antiseptic (chlorhexidine hydrochloride-PLIVA-Zagreb). Eucerin with BAC-3 was administrated twice daily during healing. The same experiment had one control group without the treatment, and one control group which was treated with ointment+1% chlorhexidine hydrochloride. […]
Tensile Strength Determination. […] The tensile strength of healthy skin was measured in killed animals from each group.
Effect of BAC-3 on Tensile Strength of Incision Wounds (FIG. 3) with and without chlorhexidine hydrochloride. The tensile strength of incision wounds was measured 21 days after wounding. […]

[1] = tested on: neonatal human keratinocyte cells; test: Caspase detection in neonatal human keratinocyte cells in KGM (serum free) medium; type: cell-based
Protocol: The procedure for caspase detection in neonatal human keratinocyte cells in KGM* (serum free) medium treated With BAC-3 using fluorescence spectroscopy
The same procedure as described for fibroblasts except different growth conditions were used (NHK97-45 passage #3 cell line was used). Neonatal human keratinocytes were without the presence of serum (KGM medium). Prior to treatment with BAC-3, passage #3 cells were grown in KGM medium for 7 days with one medium change (until 80% confluent). For preparing positive apoptosis control, plates were irradiated with UVB light for 66 seconds (792 J/m^2).
Cells, at 80% confluence, were administered BAC-3 in KGM at 50 μg/ml, 10 μg/ml, 1 μg/ml and 0.5 μg/ml concentrations. Medium was replaced every two days over the period of 6 days. On day 3, positive apoptosis control was established by irradiating cells with 792 J/m^2 UVB light and incubating them with 1 μg/ml FAS antibody. BAC-3 treated and control cells were harvested and cell densities were adjusted to 1×10^6 cells per ml with FM. 300 μl cell aliquots were labeled with FAM-VAD-FMK, fluorescent-tagged, irreversible caspase inhibitor. Unlabelled inhibitor was washed away with buffer and 100 μl aliquots were read at 485 nm excitation and 535 nm emission with fluorescence detector. Error bars indicate standard deviations.

CCCCCCCC(CC(=O)O)OC(=O)CC(CCCCCCC)OC1OC(C)C(O)C(O)C1OC1OC(C)C(O)C(O)C1O [BAC-3, (α-L-rhamnopyranosyl-(1,2)-α-L-rhamnopyranosyl)-3-hyroxydecanoyl-3-hydroxydecanoic acid]
tensile strength of incision wounds vs corresponding vehicle (incision wounds): significantly lower
optimal concentration for inducing apoptosis (caspase activity peak) ([1]; keratinocytes in KGM serum free, 6 days, tested 50, 10, 1 and 0.5 μg/ml): 1 µg/mL
mechanism of cell death at higher concentrations ([1]; keratinocytes in KGM, higher concentrations of BAC-3 (detergent effect)): cell necrosis
